Among the data in ChEMBL document CHEMBL1134784, “Synthesis and screening for antiacetylcholinesterase activity of (1-benzyl-4-oxopiperidin-3-ylidene)methylindoles and -pyrroles related to donepezil” (J Med Chem, 2001) are IC50 values, retold here.

For this test, the target named is Acetylcholinesterase (Homo sapiens, UniProt P22303).
Chain of Acetylcholinesterase (P22303 whole entry): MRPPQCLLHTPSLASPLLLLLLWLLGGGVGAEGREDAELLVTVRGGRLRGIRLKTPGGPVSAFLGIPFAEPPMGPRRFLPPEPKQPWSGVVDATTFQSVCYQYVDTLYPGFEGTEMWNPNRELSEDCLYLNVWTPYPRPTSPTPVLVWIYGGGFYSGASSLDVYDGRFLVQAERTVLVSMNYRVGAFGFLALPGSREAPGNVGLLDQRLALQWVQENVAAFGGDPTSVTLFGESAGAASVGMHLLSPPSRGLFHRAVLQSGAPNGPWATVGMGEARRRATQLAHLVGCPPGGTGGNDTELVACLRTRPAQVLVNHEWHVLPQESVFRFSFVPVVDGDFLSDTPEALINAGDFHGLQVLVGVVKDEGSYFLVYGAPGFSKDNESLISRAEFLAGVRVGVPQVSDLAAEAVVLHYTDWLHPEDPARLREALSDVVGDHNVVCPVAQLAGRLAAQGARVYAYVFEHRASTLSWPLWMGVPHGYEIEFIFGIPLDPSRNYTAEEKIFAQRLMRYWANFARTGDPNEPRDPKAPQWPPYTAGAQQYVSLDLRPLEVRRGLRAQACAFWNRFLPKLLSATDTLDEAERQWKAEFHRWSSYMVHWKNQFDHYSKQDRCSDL
Description: Inhibitory concentration required against acetylcholinesterase activity
Broadly, the IC50 is the concentration that inhibits the measured activity by half. Compound `CC(=O)n1cc(/C=C2\CN(Cc3ccccc3)CCC2=O)c2ccccc21` came in with an IC50 of 11 µM.

Compound `COc1ccc2[nH]cc(/C=C3\CN(Cc4ccccc4)CCC3=O)c2c1` came in with an IC50 of 6 µM.

The compound `O=C1CCN(Cc2ccccc2)C/C1=C\c1cn(C(=O)c2ccc([N+](=O)[O-])cc2)c2ccccc12` returned an IC50 of 50 µM.

Compound `O=C1/C(=C/c2cc[nH]c2)CN(Cc2ccccc2)C/C1=C\c1cc[nH]c1` came in with an IC50 of 6 µM.

For the compound `O=C1CCN(Cc2ccccc2)C/C1=C\c1cccn1C(=O)c1ccccc1`, the IC50 turned out to be 30 µM.

On to `N#Cc1ccc(C(=O)n2cc(/C=C3\CN(Cc4ccccc4)CCC3=O)c3ccccc32)cc1`, for which the midpoint of inhibition, the IC50, lay at 20 µM.

`O=C1CCN(Cc2ccccc2)C/C1=C\c1cn(Cc2ccccc2)c2ccccc12` displayed an IC50 of over 100 µM.

In turn, `O=C1CCN(Cc2ccccc2)C/C1=C\c1c[nH]c2ccc(OCc3ccccc3)cc12` displayed an IC50 of 25 µM.

In turn, `O=C1CCN(Cc2ccccc2)C/C1=C\c1ccc[nH]1` showed an IC50 of 11 µM.

In turn, `O=C1CCN(Cc2ccccc2)C/C1=C\c1ccn(C(=O)c2ccccc2)c1` displayed an IC50 of 30 µM.

Compound `O=C1CCN(Cc2ccccc2)C/C1=C\c1cn(C(=O)c2ccccc2)c2ccccc12` had a 50% inhibitory concentration (IC50) of 70 µM.

`CC(C)(C)OC(=O)n1cc(/C=C2\CN(Cc3ccccc3)CCC2=O)c2ccccc21` showed an IC50 of 30 µM.

As for `O=C1CCN(Cc2ccccc2)C/C1=C\c1cn(C(=O)c2ccc(F)cc2)c2ccccc12`, the IC50 came to 60 µM.

On to `O=C1CCN(Cc2ccccc2)C/C1=C\c1cn(C(=O)c2ccc(Cl)cc2)c2ccccc12`, for which the IC50 was found to be 50 µM.

`O=C1CCN(Cc2ccccc2)C/C1=C\c1c[nH]c2ccccc12`: the half-maximal inhibitory concentration (IC50) was 8 µM.

Compound `COc1ccc2c(c1)c(/C=C1\CN(Cc3ccccc3)CCC1=O)cn2C(=O)c1ccccc1` returned an IC50 of 80 µM.

Consider `O=C1CCN(Cc2ccccc2)C/C1=C\c1cc[nH]c1`, for which the IC50 stood at 6 µM.

The compound `O=C1/C(=C/c2ccc[nH]2)CN(Cc2ccccc2)C/C1=C\c1ccc[nH]1` registered an IC50 of 18 µM.

In turn, `COc1ccc(C(=O)n2cc(/C=C3\CN(Cc4ccccc4)CCC3=O)c3ccccc32)cc1` displayed an IC50 of 70 µM.

On to `Cc1[nH]c(C)c(/C=C2\CN(Cc3ccccc3)CCC2=O)c1C=O`, for which half-maximal inhibition (IC50) required 30 µM.
